Patent US7351732B2, “Cycloalkanedione derivatives, method for the production thereof and their pharmacological applications” (Schwarz Pharma S.L., priority 2002, dated 2008)

Experiments:
5-HT2A receptors = biological target: T1, 5-HT2A receptors (Rattus norvegicus, UniProt P14842); test: Radioligand displacement, 5-HT2A receptors, [3H]ketanserin; type: binding; conditions: rat cerebral cortex, read-out: Ki ± E.E. 5-HT2A
T1 construct: (b) 5-HT2A receptors, [^3H]ketanserin, rat cerebral cortex; from tissue; host or cells: rat cerebral cortex

5-HT3 receptors = biological target: T2, 5-HT3 receptors (Rattus norvegicus, UniProt P35563); test: Radioligand displacement, 5-HT3 receptors, [3H]LY 278584; type: binding; conditions: [3H]LY 278584, rat cerebral cortex; read-out: Ki ± E.E. 5-HT3
T2 construct: (c) 5-HT3 receptors, [^3H]LY 278584, rat cerebral cortex; from tissue; host or cells: rat cerebral cortex
T2 sequence (P35563 24-483): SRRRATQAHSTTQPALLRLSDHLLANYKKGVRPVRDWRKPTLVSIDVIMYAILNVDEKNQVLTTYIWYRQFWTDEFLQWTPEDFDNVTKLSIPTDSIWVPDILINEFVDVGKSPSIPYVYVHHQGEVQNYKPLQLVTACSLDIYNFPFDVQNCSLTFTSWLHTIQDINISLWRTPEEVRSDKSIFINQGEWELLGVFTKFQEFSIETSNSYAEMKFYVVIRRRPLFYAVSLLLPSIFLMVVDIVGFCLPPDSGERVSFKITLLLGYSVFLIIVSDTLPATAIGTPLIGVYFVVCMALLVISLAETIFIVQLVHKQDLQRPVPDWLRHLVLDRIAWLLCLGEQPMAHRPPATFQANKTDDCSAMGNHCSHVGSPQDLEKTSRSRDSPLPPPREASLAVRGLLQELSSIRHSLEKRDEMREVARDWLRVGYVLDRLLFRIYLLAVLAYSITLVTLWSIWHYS

5-HT4 receptors = biological target: T3, 5-HT4 receptors (Rattus norvegicus, UniProt Q62758); test: Radioligand displacement, 5-HT4 receptors, [3H]GR 113808; type: binding; conditions: [3H]GR 113808, rat striatum; read-out: Ki ± E.E. 5-HT4
T3 construct: (d) 5-HT4 receptors, [^3H]GR 113808, rat striatum; from tissue; host or cells: rat striatum

D2 receptors = biological target: T4, D2 receptors (Rattus norvegicus, UniProt P61169); test: Radioligand displacement, D2 receptors, [3H]spiperone; type: binding; conditions: rat striatum, read-out: Ki ± E.E. D2
T4 construct: (g) D2 receptors, [^3H]spiperone, rat striatum; from tissue; host or cells: rat striatum

5-human HT1A receptor = biological target: T5, 5-human HT1A receptor (Homo sapiens, UniProt P08908); test: Test on adenylate cyclase in He-La cells (inhibition of forskolin stimulation); type: cell-based; conditions: for EC50: inhibition of forskolin-stimulated adenylate cyclase, He-La cells transfected with 5-HT1A, read-out: CE50 (the source's name); for % Maximum inhibition: inhibition of the activation induced by forskolin
T5 construct: expressed in transfected cells; host or cells: HeLa cells
T5 sequence (P08908 1-422): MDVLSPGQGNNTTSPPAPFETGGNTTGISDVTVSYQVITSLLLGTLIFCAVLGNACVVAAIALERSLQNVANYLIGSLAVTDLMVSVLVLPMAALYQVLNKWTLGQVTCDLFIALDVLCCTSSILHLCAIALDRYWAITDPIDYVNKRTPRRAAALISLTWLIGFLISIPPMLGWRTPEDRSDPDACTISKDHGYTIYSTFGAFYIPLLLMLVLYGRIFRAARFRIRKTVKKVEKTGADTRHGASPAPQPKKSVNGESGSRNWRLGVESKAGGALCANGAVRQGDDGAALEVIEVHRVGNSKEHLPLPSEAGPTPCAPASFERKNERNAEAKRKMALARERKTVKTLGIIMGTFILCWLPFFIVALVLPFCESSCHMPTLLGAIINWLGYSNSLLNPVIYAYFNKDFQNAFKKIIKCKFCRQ
Text: The functional character of the new compounds was initially determined by studying their effect on adenylate cyclase in He—La cells transfected with the […], measuring their inhibiting effect on the stimulation of the enzyme induced by forskolin (Table 3 below).

[1] = system: neurons of the hippocampal area CA1; test: Hyperpolarization of neurons of the hippocampal area CA1; type: cell-based; conditions: dose-effect curves
5-HT1A [2] = biological target: T6, 5-HT1A (Rattus norvegicus, UniProt P19327); test: Radioligand displacement, 5-HT1A receptors, [3H]-8-OH-DPAT; type: binding; set-up: (a) 5-HT1A receptors, [^3H]-8-OH-DPAT, rat cerebral cortex; from tissue; host or cells: rat cerebral cortex; conditions: rat cerebral cortex, read-out: Ki ± E.E. 5-HT1A
T6 sequence (P19327 1-422): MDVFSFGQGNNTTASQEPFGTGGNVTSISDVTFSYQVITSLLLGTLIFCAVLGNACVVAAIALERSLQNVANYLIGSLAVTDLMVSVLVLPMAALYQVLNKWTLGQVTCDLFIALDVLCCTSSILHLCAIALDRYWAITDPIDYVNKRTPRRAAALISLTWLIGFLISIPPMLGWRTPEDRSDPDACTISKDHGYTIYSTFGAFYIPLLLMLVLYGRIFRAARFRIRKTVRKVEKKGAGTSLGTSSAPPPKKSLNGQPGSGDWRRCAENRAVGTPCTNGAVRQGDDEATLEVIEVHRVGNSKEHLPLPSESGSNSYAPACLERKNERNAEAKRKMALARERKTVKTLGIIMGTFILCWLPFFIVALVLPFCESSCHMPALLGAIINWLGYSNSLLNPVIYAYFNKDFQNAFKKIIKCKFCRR

5-HT1A [3] = biological target: T6, 5-HT1A; test: [35S]-GTPγS fixation test to coronal sections of rat brain; type: biochemical; set-up: fixation test of [^35S]-GTPγS to coronal sections of rat brain; from tissue; host or cells: coronal sections of rat brain; conditions: 10 μM
Experimental: The in vitro agonist character of the new compounds was also evaluated in some cases by the fixation test of [^35S]-GTPγS to coronal sections of rat brain.

5-HT7 receptors = biological target: T7, 5-HT7 receptors (Rattus norvegicus, UniProt P32305); test: Radioligand displacement, 5-HT7 receptors, [3H]-5-CT; type: binding; conditions: [3H]-5-CT, rat hypothalamus; read-out: Ki ± E.E. 5-HT7
T7 construct: (e) 5-HT7 receptors, [^3H]-5-CT, rat hypothalamus; from tissue; host or cells: rat hypothalamus

α1 receptors = test: Radioligand displacement, α1 receptors, [3H]prazosin; type: binding; conditions: rat cerebral cortex, read-out: Ki ± E.E. α1
5-HT1A [4] = test: Mouse hypothermia test; type: in vivo
Text: All compounds previously characterized in vitro as 5-HT1A agonists (Table 3) were delivered by subcutaneous injection to mice in order to quantify the hypothermia associated to stimulation of this serotonergic receptor subtype.

hippocampal area CA1 = test: Transient global ischemia model in gerbils; type: in vivo; conditions: gerbil, 1-5 mg/kg s.c., 30 min before and 24 and 48 h after ischemia
Text: In the transient ischemia model in gerbils induced by temporary occlusion of both carotid arteries, the delivery of compounds no.

[5] = system: primary cultures of rat hippocampus; test: Apoptotic neuronal death induced by serum deprivation; conditions: 24 hours without serum; compared with compound no. 1
Experimental: The neuroprotective effect of the compounds considered was studied in experimental models in vitro, using primary cultures of rat hippocampus exposed to serum deprivation, to a toxic concentration of glutamate, or incubated in conditions of hypoxia and absence of glucose.

T1 sequence (P14842 whole entry): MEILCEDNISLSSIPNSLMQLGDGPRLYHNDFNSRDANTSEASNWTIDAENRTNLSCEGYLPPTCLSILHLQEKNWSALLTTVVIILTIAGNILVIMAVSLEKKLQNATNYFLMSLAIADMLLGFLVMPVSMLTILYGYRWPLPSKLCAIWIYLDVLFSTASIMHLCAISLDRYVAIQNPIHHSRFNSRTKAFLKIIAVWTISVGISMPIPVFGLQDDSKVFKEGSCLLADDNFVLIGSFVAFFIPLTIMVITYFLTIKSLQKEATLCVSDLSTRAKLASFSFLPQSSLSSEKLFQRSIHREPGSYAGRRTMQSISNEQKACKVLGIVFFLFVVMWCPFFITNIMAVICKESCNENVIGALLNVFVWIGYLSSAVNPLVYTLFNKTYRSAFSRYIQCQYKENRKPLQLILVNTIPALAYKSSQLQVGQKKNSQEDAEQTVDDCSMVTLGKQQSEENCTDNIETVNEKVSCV
T4 sequence (P61169 whole entry): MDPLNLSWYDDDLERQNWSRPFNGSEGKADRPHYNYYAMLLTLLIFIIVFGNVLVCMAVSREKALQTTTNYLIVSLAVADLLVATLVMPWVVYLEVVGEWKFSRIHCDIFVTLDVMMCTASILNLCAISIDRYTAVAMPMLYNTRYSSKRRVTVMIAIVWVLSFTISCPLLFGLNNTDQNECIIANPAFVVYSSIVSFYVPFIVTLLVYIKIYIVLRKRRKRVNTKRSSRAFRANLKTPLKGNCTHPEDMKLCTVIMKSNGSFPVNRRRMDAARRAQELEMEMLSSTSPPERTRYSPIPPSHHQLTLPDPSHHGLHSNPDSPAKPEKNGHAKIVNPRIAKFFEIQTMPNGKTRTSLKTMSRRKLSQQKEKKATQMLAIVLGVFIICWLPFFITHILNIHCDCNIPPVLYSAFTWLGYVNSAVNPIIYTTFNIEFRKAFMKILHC
T7 sequence (P32305 whole entry): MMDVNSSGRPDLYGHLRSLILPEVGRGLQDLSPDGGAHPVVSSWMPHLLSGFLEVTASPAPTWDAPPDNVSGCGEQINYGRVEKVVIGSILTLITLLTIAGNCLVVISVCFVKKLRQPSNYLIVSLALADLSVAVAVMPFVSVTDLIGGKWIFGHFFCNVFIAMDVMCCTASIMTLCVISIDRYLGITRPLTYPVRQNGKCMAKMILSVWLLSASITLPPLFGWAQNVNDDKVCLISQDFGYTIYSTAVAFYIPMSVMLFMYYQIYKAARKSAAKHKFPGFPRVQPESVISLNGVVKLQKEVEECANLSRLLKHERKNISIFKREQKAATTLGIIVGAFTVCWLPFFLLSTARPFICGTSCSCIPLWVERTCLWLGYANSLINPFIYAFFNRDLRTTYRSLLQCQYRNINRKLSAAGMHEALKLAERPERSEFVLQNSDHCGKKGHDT
T3 sequence (Q62758 whole entry): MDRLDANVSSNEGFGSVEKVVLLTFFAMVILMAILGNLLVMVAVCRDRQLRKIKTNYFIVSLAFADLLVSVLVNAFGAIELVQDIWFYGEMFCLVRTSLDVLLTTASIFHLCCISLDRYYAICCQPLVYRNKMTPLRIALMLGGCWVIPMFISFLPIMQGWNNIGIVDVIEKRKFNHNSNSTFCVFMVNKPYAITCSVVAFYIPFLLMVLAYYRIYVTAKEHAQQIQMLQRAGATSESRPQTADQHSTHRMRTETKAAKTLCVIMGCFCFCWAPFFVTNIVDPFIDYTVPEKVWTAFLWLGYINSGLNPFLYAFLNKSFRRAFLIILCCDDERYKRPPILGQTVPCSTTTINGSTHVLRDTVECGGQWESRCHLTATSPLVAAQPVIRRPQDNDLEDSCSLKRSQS

## O=C1C2SCCN2C(=O)N1CCCCNCC1CCc2ccccc2O1 (racemic) [Compound 2, (±)-2-[4-[(Chroman-2-yl)methylamine]butyl]-1,3-dioxoperhydroimidazo[1,5-b]thiazol]
5-HT2A receptors
  Ki: > 1 µM
5-HT3 receptors
  Ki: > 10000 nM
5-HT4 receptors
  Ki: > 10 µM
D2 receptors
  Ki: > 10 µM
5-human HT1A receptor
  EC50: 18.9 nM
  % Maximum inhibition: 94.5%
[1]
  Potency in hyperpolarization test compared with 8-OH-DPAT: indistinguishable in potency to that of the 5-HT1A, 8-OH-DPAT type agonist
5-HT1A [2]
  Ki: 19.9 ± 6 nM

## O=C1C2CSCN2C(=O)N1CCCCNCC1CCc2ccccc2O1 (racemic) [Compound 3, (±)-2-[4-[(Chroman-2-yl)methylamine]butyl]-1,3-dioxoperhydroimidazo[1,5-c]-thiazol]
5-human HT1A receptor
  EC50: 31.5 nM
  % Maximum inhibition: 89.3%
5-HT1A [2]
  Ki: 13.2 ± 1 nM
5-HT1A [3]
  [35S]-GTPγS fixation compared with 8-OH-DPAT: especially similar to those obtained with the 5-HT1A, 8-OH-DPAT agonist prototype

## O=C1CSC(=O)N1CCCCNCC1CCc2ccccc2O1 (racemic) [Compound 4, (±)-3-[4-[(Chroman-2-yl)methylamine]butyl]-2,4-dioxothiazolidin]
5-human HT1A receptor
  EC50: 11.6 nM
  % Maximum inhibition: 89.6%
5-HT1A [2]
  Ki: 30.1 ± 0.6 nM

## O=C1C2CCCN2C(=O)N1CCCCNCCOc1ccccc1 (stereo not drawn) [Compound 12, 2-[4-[2-(Phenoxy)ethylamine]butyl]-1,3-dioxoperhydropyrrolo[1,2-c]imidazol]
5-HT2A receptors
  Ki: > 10 µM
5-HT3 receptors
  Ki: > 1000 nM
5-HT4 receptors
  Ki: > 10 µM
5-HT7 receptors
  Ki: > 1 µM
α1 receptors
  Ki: > 1000 nM
D2 receptors
  Ki: > 1 µM
5-human HT1A receptor
  EC50: 76.2 nM
  % Maximum inhibition: 87.4%
5-HT1A [4]; subcutaneous injection, rectal temperature
  Minimum effective dosage: 2.5 mg/kg
5-HT1A [4]; subcutaneous, at minimum effective dose
  Hypothermic effect: 1.4 °C
Hippocampal area CA1
  Prevention of ischemic injury in hippocampal area CA1 (Nissl stain): significantly prevented the injury
[5]
  Neuroprotective effect in serum deprivation: the degree of protection was somewhat below
5-HT1A [2]
  Ki: 25.5 ± 0.9 nM

## O=C1C2CCCN2C(=O)N1CCCCNCCOc1cccc2ccccc12 (stereo not drawn) [Compound 14, 2-[4-[2-(Naphth-1-oxi)ethylamine]butyl]-1,3-dioxoperhydropyrrolo[1,2-c]imidazol]
5-HT2A receptors
  Ki: 0.0415 ± 0.0075 µM
5-HT3 receptors
  Ki: > 1000 nM
5-HT4 receptors
  Ki: > 10 µM
5-HT7 receptors
  Ki: 0.0426 ± 0.0044 µM
α1 receptors
  Ki: 30.9 ± 4.9 nM
D2 receptors
  Ki: > 1 µM
5-HT1A [2]
  Ki: 2.4 ± 0.6 nM

## O=C1C2CCCN2C(=O)N1CCCCNCc1nc2ccccc2[nH]1 (stereo not drawn) [Compound 16, 2-[4-[(Benzimidazol-2-yl)methylamine]butyl]-1,3-dioxoperhydropyrrolo[1,2-c]imidazol]
5-HT2A receptors
  Ki: > 10 µM
5-HT3 receptors
  Ki: > 1000 nM
5-HT4 receptors
  Ki: > 10 µM
5-HT7 receptors
  Ki: > 10 µM
α1 receptors
  Ki: > 1000 nM
D2 receptors
  Ki: > 10 µM
5-HT1A [2]
  Ki: > 10000 nM

## COc1ccccc1CCCNCCCCN1C(=O)C2CCCN2C1=O (stereo not drawn) [Compound 19, 2-[4-[3-(o-Methoxyphenyl)propylamine]butyl]-1,3-dioxoperhydropyrrolo[1,2-c]imidazol]
5-HT2A receptors
  Ki: > 1 µM
5-HT3 receptors
  Ki: > 10000 nM
5-HT4 receptors
  Ki: > 10 µM
5-HT7 receptors
  Ki: > 10 µM
α1 receptors
  Ki: > 1000 nM
D2 receptors
  Ki: > 10 µM
5-HT1A [2]
  Ki: 73.9 ± 5 nM

## COc1ccccc1CCCCNCCCCN1C(=O)C2CCCN2C1=O (stereo not drawn) [Compound 20, 2-[4-[4-(o-Methoxyphenyl)butylamine]butyl]-1,3-dioxoperhydropyrrolo[1,2-c]imidazol]
5-HT2A receptors
  Ki: > 10 µM
5-HT3 receptors
  Ki: > 1000 nM
5-HT4 receptors
  Ki: > 10 µM
5-HT7 receptors
  Ki: > 10 µM
α1 receptors
  Ki: > 1000 nM
D2 receptors
  Ki: > 10 µM
5-HT1A [2]
  Ki: 138 ± 26.3 nM

## COc1ccccc1CCCNCCCN1C(=O)C2CCCN2C1=O (stereo not drawn) [Compound 21, 2-[3-[3-(o-Methoxyphenyl)propylamine]propyl]-1,3-dioxoperhydropyrrolo[1,2-c]imidazol]
5-HT2A receptors
  Ki: > 10 µM
5-HT3 receptors
  Ki: > 10000 nM
5-HT4 receptors
  Ki: > 1 µM
5-HT7 receptors
  Ki: > 10 µM
α1 receptors
  Ki: > 1000 nM
D2 receptors
  Ki: > 10 µM
5-HT1A [2]
  Ki: > 1000 nM
